Test results: PMC9234961 (Journal of Medicinal Chemistry, 2022)
Like-named read-outs stand apart in the source and are kept apart here.

Tests used:
[1] = biological target: kinases (468) (Homo sapiens, UniProt P54762); conditions: EPHB1; 1000 nM
[2] = biological target: kinases (468) (Homo sapiens, UniProt Q09013); conditions: DMPK; 1000 nM
[3] = biological target: kinases (468) (Homo sapiens, UniProt O96017); conditions: CHEK2; 1000 nM
[4] = biological target: kinases (468) (Homo sapiens, UniProt P21802); conditions: FGFR2; 1000 nM
[5] = biological target: kinases (468) (Homo sapiens, UniProt Q00532); conditions: CDKL1; 1000 nM
[6] = biological target: kinases (468) (Homo sapiens, UniProt P36507); conditions: MEK2 (MAP2K2); 1000 nM
[7] = biological target: kinases (468) (Homo sapiens, UniProt P06241); conditions: FYN; 1000 nM
[8] = biological target: kinases (468) (Homo sapiens, UniProt P80192); conditions: MLK1 (MAP3K9); 1000 nM
[9] = biological target: kinases (468) (Homo sapiens, UniProt Q52WX2); conditions: kinase SBK1 (Entrez SBK1); compound concentration 1000 nM
Sequence of kinases (468) (Homo sapiens, UniProt Q52WX2) (Q52WX2 whole entry): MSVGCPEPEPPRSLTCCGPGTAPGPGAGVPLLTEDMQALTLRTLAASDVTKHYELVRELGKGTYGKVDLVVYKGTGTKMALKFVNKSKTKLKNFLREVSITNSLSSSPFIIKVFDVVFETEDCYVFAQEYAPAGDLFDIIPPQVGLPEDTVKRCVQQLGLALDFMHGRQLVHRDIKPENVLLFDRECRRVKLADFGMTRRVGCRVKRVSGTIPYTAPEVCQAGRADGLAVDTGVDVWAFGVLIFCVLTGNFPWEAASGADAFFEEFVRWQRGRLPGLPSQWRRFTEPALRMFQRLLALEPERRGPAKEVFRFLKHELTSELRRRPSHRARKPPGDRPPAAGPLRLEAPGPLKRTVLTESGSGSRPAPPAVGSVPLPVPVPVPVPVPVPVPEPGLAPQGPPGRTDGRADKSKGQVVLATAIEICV

[10] = biological target: kinases (468) (Homo sapiens, UniProt P42336, E545K); conditions: PIK3CA(E545K); 1000 nM
Sequence of kinases (468) (Homo sapiens, UniProt P42336, E545K) (P42336 whole entry E545K): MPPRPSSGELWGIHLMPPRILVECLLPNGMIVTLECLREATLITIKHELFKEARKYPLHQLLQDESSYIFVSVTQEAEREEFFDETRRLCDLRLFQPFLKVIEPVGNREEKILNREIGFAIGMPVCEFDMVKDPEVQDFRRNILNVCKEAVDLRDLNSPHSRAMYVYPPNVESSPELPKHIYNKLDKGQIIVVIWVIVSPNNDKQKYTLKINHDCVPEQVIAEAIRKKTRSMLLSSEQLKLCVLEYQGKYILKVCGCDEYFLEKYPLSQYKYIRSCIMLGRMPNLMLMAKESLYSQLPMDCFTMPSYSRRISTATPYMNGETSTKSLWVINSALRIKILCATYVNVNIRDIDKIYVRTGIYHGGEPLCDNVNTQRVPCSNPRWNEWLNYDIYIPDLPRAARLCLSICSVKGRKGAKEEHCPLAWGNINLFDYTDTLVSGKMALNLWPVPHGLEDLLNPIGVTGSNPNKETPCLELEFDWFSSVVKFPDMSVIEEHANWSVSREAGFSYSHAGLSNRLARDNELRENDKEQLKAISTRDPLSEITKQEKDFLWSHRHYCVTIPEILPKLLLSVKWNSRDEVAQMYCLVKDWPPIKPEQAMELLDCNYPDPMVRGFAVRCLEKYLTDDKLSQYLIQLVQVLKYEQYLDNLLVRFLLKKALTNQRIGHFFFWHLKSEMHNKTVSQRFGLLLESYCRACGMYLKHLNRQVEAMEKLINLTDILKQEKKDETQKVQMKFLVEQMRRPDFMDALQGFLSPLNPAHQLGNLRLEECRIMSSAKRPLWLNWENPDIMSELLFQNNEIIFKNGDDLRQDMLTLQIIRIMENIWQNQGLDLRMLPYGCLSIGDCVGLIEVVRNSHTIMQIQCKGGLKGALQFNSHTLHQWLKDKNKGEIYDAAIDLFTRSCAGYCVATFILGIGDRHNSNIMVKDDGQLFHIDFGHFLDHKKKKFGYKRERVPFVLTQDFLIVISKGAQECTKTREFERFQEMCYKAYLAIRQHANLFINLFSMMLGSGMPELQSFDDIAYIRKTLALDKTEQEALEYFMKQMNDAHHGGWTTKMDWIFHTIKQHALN

[11] = biological target: kinases (468) (Homo sapiens, UniProt P51451); conditions: BLK; 1000 nM
[12] = biological target: kinases (468) (Homo sapiens, UniProt Q9UK32); conditions: compound concentration 1000 nM
Sequence of kinases (468) (Homo sapiens, UniProt Q9UK32) (Q9UK32 whole entry): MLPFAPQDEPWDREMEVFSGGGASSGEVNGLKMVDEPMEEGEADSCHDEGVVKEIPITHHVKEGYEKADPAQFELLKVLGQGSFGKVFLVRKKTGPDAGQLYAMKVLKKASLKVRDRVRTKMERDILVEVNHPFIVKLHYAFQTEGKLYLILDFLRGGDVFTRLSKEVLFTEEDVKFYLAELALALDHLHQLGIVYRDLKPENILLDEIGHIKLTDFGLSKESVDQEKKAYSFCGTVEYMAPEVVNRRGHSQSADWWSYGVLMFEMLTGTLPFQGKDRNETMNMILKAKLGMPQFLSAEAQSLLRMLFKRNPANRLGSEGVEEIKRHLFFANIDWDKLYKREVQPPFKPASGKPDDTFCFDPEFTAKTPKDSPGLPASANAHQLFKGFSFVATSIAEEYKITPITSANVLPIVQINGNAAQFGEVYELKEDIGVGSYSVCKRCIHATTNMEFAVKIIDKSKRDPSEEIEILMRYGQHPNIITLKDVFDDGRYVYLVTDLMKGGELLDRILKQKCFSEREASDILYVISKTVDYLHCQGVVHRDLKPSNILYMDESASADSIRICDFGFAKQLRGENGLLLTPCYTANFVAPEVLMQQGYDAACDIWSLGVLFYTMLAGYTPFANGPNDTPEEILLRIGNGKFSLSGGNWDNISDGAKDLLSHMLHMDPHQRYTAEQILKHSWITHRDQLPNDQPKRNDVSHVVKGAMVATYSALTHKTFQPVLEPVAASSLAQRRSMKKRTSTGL

[13] = biological target: kinases (468) (Homo sapiens, UniProt P10721, V559D/V654A); conditions: KIT(V559D,V654A); 1000 nM
[14] = biological target: kinases (468) (Homo sapiens, UniProt P0C1S8); conditions: kinase WEE2 (Entrez WEE2); compound concentration 1000 nM
[15] = biological target: kinases (468) (Homo sapiens, UniProt Q9UM73, L1196M); conditions: ALK(L1196M); 1000 nM
[16] = biological target: kinases (468) (Homo sapiens, UniProt P32298); conditions: GRK4; 1000 nM
[17] = biological target: kinases (468) (Homo sapiens, UniProt Q02750); conditions: MEK1 (MAP2K1); 1000 nM
Sequence of kinases (468) (Homo sapiens, UniProt Q02750) (Q02750 whole entry): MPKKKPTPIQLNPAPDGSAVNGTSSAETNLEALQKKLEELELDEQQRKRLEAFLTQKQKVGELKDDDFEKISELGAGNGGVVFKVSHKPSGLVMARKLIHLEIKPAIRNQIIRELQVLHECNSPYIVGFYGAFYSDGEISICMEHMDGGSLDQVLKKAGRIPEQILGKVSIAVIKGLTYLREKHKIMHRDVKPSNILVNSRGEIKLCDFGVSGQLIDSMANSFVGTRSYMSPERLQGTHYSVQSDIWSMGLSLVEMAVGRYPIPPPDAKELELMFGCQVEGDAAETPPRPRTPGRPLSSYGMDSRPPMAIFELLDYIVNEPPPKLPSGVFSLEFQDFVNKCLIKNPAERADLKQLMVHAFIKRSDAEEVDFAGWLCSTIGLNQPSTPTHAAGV

[18] = biological target: kinases (468) (Homo sapiens, UniProt Q15303); conditions: ERBB4; 1000 nM
[19] = biological target: kinases (468) (Homo sapiens, UniProt Q9UM73, C1156Y); conditions: ALK(C1156Y); 1000 nM
[20] = biological target: kinases (468) (Homo sapiens, UniProt P08581, M1250T); conditions: MET(M1250T); 1000 nM
[21] = biological target: kinases (468) (Homo sapiens, UniProt P45984); conditions: JNK2 (MAPK9); 1000 nM
[22] = biological target: kinases (468) (Homo sapiens, UniProt P30530); conditions: AXL; 1000 nM
Sequence of kinases (468) (Homo sapiens, UniProt P30530) (P30530 26-894): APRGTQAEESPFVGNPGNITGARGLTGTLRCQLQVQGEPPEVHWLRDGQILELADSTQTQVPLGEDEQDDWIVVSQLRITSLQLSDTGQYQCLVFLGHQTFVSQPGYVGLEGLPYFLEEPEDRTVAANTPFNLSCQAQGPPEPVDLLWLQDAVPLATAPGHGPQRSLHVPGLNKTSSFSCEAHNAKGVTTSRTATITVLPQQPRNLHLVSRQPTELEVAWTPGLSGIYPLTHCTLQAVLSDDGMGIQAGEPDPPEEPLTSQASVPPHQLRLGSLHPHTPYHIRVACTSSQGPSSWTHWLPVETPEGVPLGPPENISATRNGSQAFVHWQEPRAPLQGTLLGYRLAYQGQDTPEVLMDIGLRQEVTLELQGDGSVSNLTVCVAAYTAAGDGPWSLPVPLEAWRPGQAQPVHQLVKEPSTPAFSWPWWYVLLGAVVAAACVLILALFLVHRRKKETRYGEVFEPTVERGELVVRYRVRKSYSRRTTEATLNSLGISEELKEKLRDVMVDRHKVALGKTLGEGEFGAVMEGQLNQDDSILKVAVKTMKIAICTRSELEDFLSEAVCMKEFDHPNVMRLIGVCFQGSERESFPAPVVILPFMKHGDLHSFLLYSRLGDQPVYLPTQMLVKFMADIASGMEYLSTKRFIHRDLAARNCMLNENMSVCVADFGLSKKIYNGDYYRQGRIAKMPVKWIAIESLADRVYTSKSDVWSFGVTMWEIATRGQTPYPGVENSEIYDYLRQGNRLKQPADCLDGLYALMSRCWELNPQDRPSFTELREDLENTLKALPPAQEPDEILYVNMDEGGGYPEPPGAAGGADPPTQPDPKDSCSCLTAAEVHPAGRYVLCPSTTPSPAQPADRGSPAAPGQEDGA

[23] = biological target: kinases (468) (Homo sapiens, UniProt P30291); conditions: kinase WEE1 (Entrez WEE1); compound concentration 1000 nM
[24] = biological target: kinases (468) (Homo sapiens, UniProt P41240); conditions: CSK; 1000 nM
[25] = biological target: kinases (468) (Homo sapiens, UniProt P37023); conditions: ACVRL1; 1000 nM
[26] = biological target: kinases (468) (Homo sapiens, UniProt Q96BR1); conditions: kinase SGK3 (Entrez SGK3); compound concentration 1000 nM
[27] = biological target: kinases (468) (Homo sapiens, UniProt P33981); conditions: kinase TTK (Entrez TTK); compound concentration 1000 nM
Sequence of kinases (468) (Homo sapiens, UniProt P33981) (P33981 whole entry): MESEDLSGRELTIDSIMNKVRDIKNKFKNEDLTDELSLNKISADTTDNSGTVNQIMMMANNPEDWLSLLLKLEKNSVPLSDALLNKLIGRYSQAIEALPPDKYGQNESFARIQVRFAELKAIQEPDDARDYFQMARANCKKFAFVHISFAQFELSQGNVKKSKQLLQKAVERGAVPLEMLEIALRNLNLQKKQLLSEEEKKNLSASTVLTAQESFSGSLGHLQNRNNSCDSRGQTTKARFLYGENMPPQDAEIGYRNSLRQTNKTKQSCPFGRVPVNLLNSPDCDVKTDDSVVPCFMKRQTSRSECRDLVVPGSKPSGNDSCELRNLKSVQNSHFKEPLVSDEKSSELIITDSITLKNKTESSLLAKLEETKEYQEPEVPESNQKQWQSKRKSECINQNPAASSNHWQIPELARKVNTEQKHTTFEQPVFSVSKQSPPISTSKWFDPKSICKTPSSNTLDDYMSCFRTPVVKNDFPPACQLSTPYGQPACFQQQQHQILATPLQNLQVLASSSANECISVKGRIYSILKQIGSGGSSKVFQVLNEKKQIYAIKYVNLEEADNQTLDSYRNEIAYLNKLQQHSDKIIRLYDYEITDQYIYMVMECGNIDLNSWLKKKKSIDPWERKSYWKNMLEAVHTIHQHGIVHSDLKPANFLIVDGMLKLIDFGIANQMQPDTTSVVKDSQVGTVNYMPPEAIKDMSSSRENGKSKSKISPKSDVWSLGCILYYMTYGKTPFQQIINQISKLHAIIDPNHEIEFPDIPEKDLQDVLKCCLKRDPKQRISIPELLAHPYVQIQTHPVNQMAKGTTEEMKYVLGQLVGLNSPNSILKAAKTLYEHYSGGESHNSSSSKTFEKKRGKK

[28] = biological target: kinases (468) (Homo sapiens, UniProt O14965); conditions: AURKA; 1000 nM
[29] = biological target: kinases (468) (Homo sapiens, UniProt O60331); conditions: PIP5K1C; 1000 nM
[30] = biological target: kinases (468) (Homo sapiens, UniProt Q9UQ88); conditions: CDC2L2; 1000 nM
[31] = biological target: kinases (468) (Homo sapiens, UniProt P36897); conditions: kinase TGFBR1 (Entrez TGFBR1); compound concentration 1000 nM
[32] = biological target: kinases (468) (Homo sapiens, UniProt Q13237); conditions: PRKG2; 1000 nM
[33] = biological target: kinases (468) (Homo sapiens, UniProt O15530); conditions: PDPK1; 1000 nM
Sequence of kinases (468) (Homo sapiens, UniProt O15530) (O15530 whole entry): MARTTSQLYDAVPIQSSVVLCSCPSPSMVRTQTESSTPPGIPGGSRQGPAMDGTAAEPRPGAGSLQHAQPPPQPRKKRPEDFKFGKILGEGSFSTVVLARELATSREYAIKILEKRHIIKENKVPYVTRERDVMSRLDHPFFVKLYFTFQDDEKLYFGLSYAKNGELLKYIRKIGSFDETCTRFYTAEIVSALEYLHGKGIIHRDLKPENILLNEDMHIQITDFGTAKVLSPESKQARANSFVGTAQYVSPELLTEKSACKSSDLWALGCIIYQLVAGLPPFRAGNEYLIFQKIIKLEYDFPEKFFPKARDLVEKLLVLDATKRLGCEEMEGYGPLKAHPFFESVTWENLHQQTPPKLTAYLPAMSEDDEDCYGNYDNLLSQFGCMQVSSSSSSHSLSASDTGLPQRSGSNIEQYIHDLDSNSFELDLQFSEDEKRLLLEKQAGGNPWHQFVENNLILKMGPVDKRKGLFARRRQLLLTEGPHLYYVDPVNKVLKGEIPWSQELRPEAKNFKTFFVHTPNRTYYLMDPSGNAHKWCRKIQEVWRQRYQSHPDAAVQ

[34] = biological target: kinases (468) (Homo sapiens, UniProt Q9P2K8, S808G); conditions: GCN2(Kin.Dom.2,S808G) (EIF2AK4); 1000 nM

Compound: C[C@H]1C[C@@H](O)CN(c2ncc(Cl)c(Nc3ccc4c(c3)c3c(c(=O)n4C)OCC(F)(F)[C@H](C4CC4)N3)n2)C1 [CCT373566_9A]
- Percent Control [1]: 99%
- Percent Control [2]: 98%
- Percent Control [3]: 99%
- Percent Control [4]: 100%
- Percent Control [5]: 97%
- Percent Control [6]: 79%
- Percent Control [7]: 100%
- Percent Control [8]: 100%
- Percent Control [9]: 99%
- Percent Control [10]: 95%
- Percent Control [11]: 99%
- Percent Control ([12]; kinase RSK4(Kin.Dom.1-N-terminal) (Entrez RPS6KA6)): 90%
- Percent Control ([12]; kinase RSK4(Kin.Dom.2-C-terminal) (Entrez RPS6KA6)): 88%
- Percent Control [13]: 98%
- Percent Control [14]: 93%
- Percent Control [15]: 97%
- Percent Control [16]: 91%
- Percent Control [17]: 90%
- Percent Control [18]: 99%
- Percent Control [19]: 95%
- Percent Control [20]: 100%
- Percent Control [21]: 78%
- Percent Control [22]: 95%
- Percent Control [23]: 89%
- Percent Control [24]: 86%
- Percent Control [25]: 96%
- Percent Control [26]: 99%
- Percent Control [27]: 91%
- Percent Control [28]: 100%
- Percent Control [29]: 91%
- Percent Control [30]: 97%
- Percent Control [31]: 89%
- Percent Control [32]: 100%
- Percent Control [33]: 100%
- Percent Control [34]: 100%
